The nature of data set [1]: General toxicity of IMSs in mice. It is filed as in vivo. The following applies: mouse, in vivo, ip; FVB mice, intraperitoneally every other day for 2 weeks; estimated. On the procedure: (§1) IMSs (DPIM and DBZIM) were dissolved in saline, and administered to Friend virus B-Type (FVB) mice (weighing ˜25-30 g) intraperitoneally every other day for 2 weeks. The dosages were 0, 200, 300, 350, 400 and 500 mg/kg for DPIM, and 0, 10, 30, 35, 40 and […] for DBZIM. The injection volume was maintained at 100-160 μl. The mortality rate of mice was assessed after the treatment. The animal experimental protocol was approved by the Institutional Animal Care and Use Committee (IACUC) of Biological Resource Center (BRC) at Biopolis, Singapore.
(§2) In the preliminary toxicity studies, two forms of IMSs were selected for in vivo testing with FVB inbred mice. For DBZIM, the lethal dosage was 50 mg/kg and LD50 was estimated to be 30-40 mg/kg. For DPIM, the lethal dosage was 500 mg/kg and LD50 was ˜300-400 mg/kg.

Data set [2] deals with FVB mice. Put plainly: General toxicity of IMSs in mice. The conditions noted are these: intraperitoneally every other day for 2 weeks. It is filed as in vivo. The protocol: as §1, §2
Data set [3] has as its system liver fibrosis induced by bile duct ligation (BDL). Briefly: Liver fibrosis in mice induced by bile duct ligation (BDL). It counts as in vivo, mouse. The following applies: for liver fibrosis (Sirius Red collagen): drinking water, 4 weeks, DBZIM 10 mg/L, DPIM 1 g/L. On the procedure: FIG. 15 Effect of DBZIM and DPIM on liver fibrosis in mice. DBZIM was tested on mice induced by (a) liver toxin thioacetamide (TAA) or by (b) bile duct ligation (BDL). DPIM was also tested on mice induced by TAA (data not shown)) or by (c) bile duct ligation (BDL).
FIG. 16. Representative of images of Sirius red staining in liver sections from different DPIM compound treated group mice. Each treated group had 6-8 mice, except for 500 mg/l treated group, which had only one mouse in the group. Red staining areas represent collagen deposits. (A) sham operated, (B) sham operated+DPIM 1 g/l for 4 weeks, (C) BDL for 4 weeks, (D) BDL 4 weeks+500 mg/l DPIM treatment, (E) BDL 4 weeks+750 mg/l DPIM treatment, and (F) BDL 4 weeks+1 g/l DPIM treatment.
FIG. 17. Percentage of Sirius red staining areas. Sirius red staining areas from different treatment group mice were quantified with Image J software, at least 6 different areas from left and middle lobes of liver of each mouse were covered. *P<0.05, BDL vs. DPIM treated groups; # P<0.05, 750 mg/l vs. 1 g/l treated groups.
FIG. 18. Liver weights of different treatment groups. Each group consisted of 6-8 mice which were 10-12 weeks old at the start of surgery procedure. *P<0.05, sham operated control group vs: BDL 4 weeks, **P<0.05, DPIM compound treated groups vs; BDL weeks group, # P<0.05, 750 mg/l DPIM treated group vs. 1 g/l DPIM treated group.
FIG. 19. Representative images of H&E staining of liver sections. (A) control group; (B) BDL 4 weeks group; and (C) BDL 4 weeks+DPIM 1 g/l treatment group.
FIG. 20. Quantitative real-time PCR for collagen 1a1 mRNA. DPIM reduced collagen 1a1 mRNA.
For the liver toxin thioacetamide (TAA) model, TAA was given by i.p. injection at 200 mg/kg body weight, 3 times per week, for 12 weeks, to induce hepatic fibrosis in mice. For the bile duct ligation model (BDL), adult mice were anesthetized with Ketamine (150 mg/kg)/Xylazine (10 mg/kg) via i.p. injection. An abdominal incision at the midline is made to expose the common bile conduct, which was then ligated using 5-0 silk suture. In the control animal, the bile duct is exposed, but not ligated. DBZIM or DPIM was provided to the mice in drinking water at concentrations from 1 to 1000 mg/liter. The collagen content in the fibrotic liver was assessed by the Sirius Red staining of the liver tissue sections.
Male FVB/N mice (8-10 weeks old) housed in a specific pathogen-free (SFP) facility on a 12 hour dark-light cycle and with free access to water and diet were used in the study. The animal experiment protocol was approved by the institutional animal care and use committee (IACUC), the Biomedical Research Council (BMRC) of Singapore.
Cholestatic fibrosis was induced by BDL, briefly, mice were anesthetized with intraperitoneal injection of ketamine (150 mg/kg) and xylazine (10 mg/kg), after midline laparotomy, the common bile duct was ligated twice with 5-0 silk suture. The sham operation was performed similarly except that bile duct was not double ligated. The experimental mice were divided into four groups: 1) control only (sham operated, but no BDL); 2) control+DPIM; 3) BDL only; 4) BDL+DPIM. Each group consists of 6-8 mice. DPIM compound for treatment was supplied in the drinking water at three concentrations, 500 mg/l, 750 mg/l, 1 g/l, respectively. The drinking water containing DPIM was changed weekly. It was observed that on average each mouse (normal or operated) drank approximately 3-4 ml plain or DPIM-containing water every day. […] The compound treatment was started on the third day after animals recovered from the BDL procedure. After 4 weeks, livers were removed from mice for fixation 10% formalin, subsequently embedded in paraffin.
For consistency, paraffin-sections prepared from the left and median lobes were stained with Sirius-Red to visualize the collagen content. […]

SMILES strings stand for the structures.

The term LD50 denotes the dose expected to kill half of the subjects tested. Take `[Br-].c1ccc(Cn2cc[n+](Cc3ccccc3)c2)cc1` [DBZIM, 1,3-bisbenzylimidazolium bromide]: in data set [1], the LD50 at 2 weeks is 30 to 40 mg/kg. The compound further gave a lethal dosage in data set [2] of 50 mg/kg. In addition, the “liver fibrosis (Sirius Red collagen)” value in data set [3] (BDL model) was “attenuated fibrosis”.

Consider `CC(C)n1cc[n+](C(C)C)c1.F[B-](F)(F)F` [DPIM, 1,3-diisopropylimidazolium tetrafluoroborate], for which the LD50 at 2 weeks in data set [1] was 300 to 400 mg/kg. The lethal dosage in data set [2] is on record as 500 mg/kg. Also, the liver weight in data set [3] (BDL 4 weeks + 750 mg/l (BDL alone 2.74±0.51 g)) was determined as 1.97 ± 0.44 g; in data set [3] (BDL 4 weeks + 1 g/l (BDL alone 2.74±0.51 g)), 1.65 ± 0.20 g; in data set [3] (sham operated + DPIM for 4 weeks (sham 1.50±0.19 g)), 1.56 ± 0.08 g. Moreover, the “Sirius-Red positive areas (percentage of staining areas; BDL alone 8.69)” value in data set [3] (BDL 4 weeks + 750 mg/l in drinking water) worked out at 4.33%; in data set [3] (BDL 4 weeks + 1 g/l in drinking water), 3.42%. In addition, in data set [3] (BDL 4 weeks + 1 g/l), the “proliferative cells around the sinusoidal area (H&E staining)” value was “reduced the number of proliferative cells”. The “liver collagen 1a1 mRNA” value in data set [3] (BDL model) is given as “reduced the collagen 1a1 mRNA”. The “liver fibrosis (Sirius Red collagen)” value in data set [3] (BDL model) is recorded as “displayed its effect”. Besides, the “collagen build-up in sham mice” value in data set [3] (sham operated + 1 g/l for 4 weeks) is given as “did not induce any significant build-up of collagen”.

Source of the values: patent publication US9072729B2, “Method for treating fibrosis and cancer with imidazolium and imidazolinium compounds” (Agency for Science, Technology and Research, priority 2008, dated 2015).
